From the NIST ThermoML archive (doi:10.1021/je060271a)
Several values for one entry are separate records, joined by “and”; a condition that tells them apart may be missing. Equal values may be shown once.

Conditions: 303.15 K, Liquid, Vibrating tube method

CCCCCC(=O)OCC(COC(=O)CCCCC)(COC(=O)CCCCC)COC(=O)CCCCC [pentaerythritol tetrahexanoate]
Conditions	mass density
228.5 kPa	988.5 kg/m3
228.8 kPa	988.5 kg/m3 and 988.4 kg/m3
229 kPa	988.6 kg/m3
229.5 kPa	988.6 kg/m3
229.7 kPa	988.5 kg/m3
230 kPa	988.5 kg/m3
230.2 kPa	988.5 kg/m3
230.4 kPa	988.5 kg/m3
230.8 kPa	988.5 kg/m3
230.9 kPa	988.5 kg/m3
231.1 kPa	988.3 kg/m3
231.4 kPa	988.5 kg/m3
231.8 kPa	988.4 kg/m3
233.2 kPa	988.5 kg/m3
233.5 kPa	988.4 kg/m3 and 988.5 kg/m3
242.4 kPa	988.5 kg/m3
244 kPa	988.5 kg/m3
244.1 kPa	988.6 kg/m3
244.5 kPa	988.5 kg/m3
247.3 kPa	988.5 kg/m3
247.4 kPa	988.4 kg/m3
247.8 kPa	988.5 kg/m3
248.1 kPa	988.4 kg/m3 and 988.6 kg/m3
248.3 kPa	988.5 kg/m3
249.7 kPa	988.5 kg/m3
250.2 kPa	988.5 kg/m3
250.4 kPa	988.4 kg/m3
250.6 kPa	988.5 kg/m3
250.7 kPa	988.6 kg/m3
262 kPa	988.6 kg/m3
283.9 kPa	988.4 kg/m3
284.4 kPa	988.6 kg/m3
284.8 kPa	988.6 kg/m3 and 988.5 kg/m3
287.9 kPa	988.5 kg/m3
288.2 kPa	988.6 kg/m3
288.7 kPa	988.6 kg/m3
289.1 kPa	988.6 kg/m3
289.6 kPa	988.6 kg/m3 and 988.5 kg/m3
293.3 kPa	988.6 kg/m3
294 kPa	988.7 kg/m3 and 988.6 kg/m3
294.3 kPa	988.6 kg/m3
294.8 kPa	988.5 kg/m3
295 kPa	988.5 kg/m3
295.2 kPa	988.4 kg/m3
295.9 kPa	988.6 kg/m3 and 988.5 kg/m3
296.4 kPa	988.6 kg/m3 and 988.5 kg/m3
296.9 kPa	988.6 kg/m3
297.3 kPa	988.4 kg/m3
297.6 kPa	988.5 kg/m3
305.4 kPa	988.5 kg/m3
305.8 kPa	988.6 kg/m3
305.9 kPa	988.6 kg/m3
312.9 kPa	988.4 kg/m3
313.2 kPa	988.6 kg/m3
314.1 kPa	988.6 kg/m3
314.5 kPa	988.5 kg/m3
314.8 kPa	988.5 kg/m3
315.2 kPa	988.5 kg/m3
315.8 kPa	988.6 kg/m3
324.2 kPa	988.6 kg/m3
324.7 kPa	988.5 kg/m3
329.4 kPa	988.6 kg/m3
329.9 kPa	988.6 kg/m3
330.4 kPa	988.7 kg/m3
330.8 kPa	988.6 kg/m3
331.1 kPa	988.6 kg/m3
331.5 kPa	988.5 kg/m3
331.6 kPa	988.6 kg/m3
332 kPa	988.6 kg/m3
332.7 kPa	988.6 kg/m3 and 988.7 kg/m3
334.1 kPa	988.7 kg/m3
334.4 kPa	988.5 kg/m3
334.6 kPa	988.5 kg/m3
335.1 kPa	988.6 kg/m3
335.6 kPa	988.6 kg/m3
335.7 kPa	988.6 kg/m3
336.2 kPa	988.6 kg/m3
336.5 kPa	988.6 kg/m3
337 kPa	988.6 kg/m3
337.6 kPa	988.6 kg/m3
337.9 kPa	988.6 kg/m3
338.1 kPa	988.6 kg/m3
338.3 kPa	988.5 kg/m3
339 kPa	988.5 kg/m3
340 kPa	988.6 kg/m3
341.5 kPa	988.5 kg/m3
342.1 kPa	988.6 kg/m3
342.8 kPa	988.7 kg/m3
343.1 kPa	988.5 kg/m3
343.3 kPa	988.6 kg/m3
343.8 kPa	988.5 kg/m3
389.7 kPa	988.6 kg/m3
391.9 kPa	988.5 kg/m3
393.8 kPa	988.6 kg/m3
396.4 kPa	988.7 kg/m3
398.9 kPa	988.6 kg/m3
401 kPa	988.6 kg/m3
403.1 kPa	988.6 kg/m3
405.6 kPa	988.6 kg/m3
407.9 kPa	988.5 kg/m3
410.3 kPa	988.7 kg/m3
413.3 kPa	988.6 kg/m3
415.4 kPa	988.6 kg/m3
418.3 kPa	988.7 kg/m3
420.6 kPa	988.6 kg/m3
423.2 kPa	988.6 kg/m3
426.5 kPa	988.7 kg/m3
428.6 kPa	988.7 kg/m3
431 kPa	988.6 kg/m3
434 kPa	988.6 kg/m3
436.4 kPa	988.7 kg/m3
439.4 kPa	988.6 kg/m3
442.5 kPa	988.7 kg/m3
445.1 kPa	988.7 kg/m3
448.1 kPa	988.6 kg/m3
451.4 kPa	988.6 kg/m3
579.1 kPa	988.9 kg/m3
583.8 kPa	988.9 kg/m3
588.3 kPa	988.7 kg/m3
593.5 kPa	988.7 kg/m3
598.6 kPa	988.6 kg/m3
604.3 kPa	988.7 kg/m3
609.3 kPa	988.6 kg/m3
614.4 kPa	988.7 kg/m3
620.8 kPa	988.8 kg/m3
625.5 kPa	988.7 kg/m3
631 kPa	988.8 kg/m3
635.9 kPa	988.8 kg/m3
642.5 kPa	988.8 kg/m3
648.3 kPa	988.8 kg/m3
653.8 kPa	988.8 kg/m3
660.6 kPa	988.8 kg/m3
666.7 kPa	988.8 kg/m3
672.6 kPa	988.8 kg/m3
679.9 kPa	988.7 kg/m3
686 kPa	988.7 kg/m3
838 kPa	988.9 kg/m3
872.9 kPa	989 kg/m3
882.8 kPa	988.9 kg/m3
890.8 kPa	988.9 kg/m3
899 kPa	988.9 kg/m3
907.3 kPa	989 kg/m3
916.8 kPa	989 kg/m3
925 kPa	988.8 kg/m3
933.2 kPa	989 kg/m3
941.9 kPa	988.9 kg/m3
951.9 kPa	989 kg/m3
958.5 kPa	988.9 kg/m3
967.6 kPa	989 kg/m3
978.3 kPa	988.9 kg/m3
988.8 kPa	988.9 kg/m3
998 kPa	988.9 kg/m3
1009.3 kPa	989 kg/m3
1019.8 kPa	989 kg/m3
1029.2 kPa	989 kg/m3
1039.1 kPa	989.1 kg/m3
1048.9 kPa	989 kg/m3
1061.2 kPa	989 kg/m3
1072 kPa	989 kg/m3
1082 kPa	989.1 kg/m3
1093.8 kPa	989.1 kg/m3
1103.9 kPa	989.2 kg/m3
1113.5 kPa	989 kg/m3
1123.5 kPa	989.2 kg/m3
1135.9 kPa	989 kg/m3
1146.3 kPa	989 kg/m3
1156.2 kPa	989.1 kg/m3
1166.8 kPa	989.1 kg/m3
1179.7 kPa	989.1 kg/m3
1189.9 kPa	989.1 kg/m3
1200.7 kPa	989.1 kg/m3
1210.9 kPa	989.1 kg/m3
1223.8 kPa	989.2 kg/m3
1234.4 kPa	989.1 kg/m3
1245.1 kPa	989.2 kg/m3
1258.2 kPa	989.1 kg/m3
1269.3 kPa	989.2 kg/m3
1280 kPa	989.2 kg/m3
1291.5 kPa	989.2 kg/m3
1305.2 kPa	989.2 kg/m3
1316.3 kPa	989.2 kg/m3
1327.8 kPa	989.1 kg/m3
1339.4 kPa	989.3 kg/m3
1353.7 kPa	989.2 kg/m3
1365.5 kPa	989.2 kg/m3
1377.5 kPa	989.2 kg/m3
1391.9 kPa	989.3 kg/m3
1719.8 kPa	989.5 kg/m3
1738.4 kPa	989.5 kg/m3
1753.5 kPa	989.5 kg/m3
1768.6 kPa	989.6 kg/m3
1784.2 kPa	989.5 kg/m3
1803 kPa	989.6 kg/m3
1854.3 kPa	989.5 kg/m3
1870.3 kPa	989.5 kg/m3
1886.5 kPa	989.6 kg/m3
1903.5 kPa	989.5 kg/m3
1923.6 kPa	989.6 kg/m3
2090.4 kPa	989.6 kg/m3
2108.2 kPa	989.7 kg/m3
2167.4 kPa	989.7 kg/m3
2229.2 kPa	989.8 kg/m3
2248.4 kPa	989.7 kg/m3
2292.3 kPa	989.8 kg/m3
2312.5 kPa	989.8 kg/m3
2337.4 kPa	989.9 kg/m3
2355.8 kPa	989.8 kg/m3
2380.4 kPa	989.9 kg/m3
2401.1 kPa	989.9 kg/m3
2421.9 kPa	989.8 kg/m3
2443 kPa	989.9 kg/m3
2468.5 kPa	990 kg/m3
2489.7 kPa	990 kg/m3
2511 kPa	990 kg/m3
2536.5 kPa	989.9 kg/m3
2558.6 kPa	990 kg/m3
2580.8 kPa	990 kg/m3
2603.5 kPa	990 kg/m3
2631.6 kPa	990 kg/m3
2649.5 kPa	990.1 kg/m3
2676.9 kPa	990 kg/m3
2699.1 kPa	990 kg/m3
2726.5 kPa	990 kg/m3
2749.6 kPa	990.2 kg/m3
2772.3 kPa	990.1 kg/m3
2795.2 kPa	990.1 kg/m3
2823.5 kPa	990.2 kg/m3
2846.9 kPa	990.2 kg/m3
2870.6 kPa	990.2 kg/m3
2899.1 kPa	990.1 kg/m3
2923.3 kPa	990.2 kg/m3
2948 kPa	990.2 kg/m3
2972.9 kPa	990.3 kg/m3
3001.9 kPa	990.2 kg/m3
3026.2 kPa	990.3 kg/m3
3050.9 kPa	990.3 kg/m3
3075.6 kPa	990.3 kg/m3
3105.6 kPa	990.3 kg/m3
3130.3 kPa	990.3 kg/m3
3156 kPa	990.4 kg/m3
3181.3 kPa	990.4 kg/m3
3212.3 kPa	990.4 kg/m3
3237.8 kPa	990.4 kg/m3
3263.7 kPa	990.4 kg/m3
3294.7 kPa	990.4 kg/m3
3320.9 kPa	990.4 kg/m3
3346.9 kPa	990.6 kg/m3
3378.1 kPa	990.5 kg/m3
3404.7 kPa	990.5 kg/m3
3430.9 kPa	990.6 kg/m3
3457.8 kPa	990.7 kg/m3
3490.4 kPa	990.6 kg/m3
3517.7 kPa	990.5 kg/m3
3545.6 kPa	990.5 kg/m3
3578.7 kPa	990.6 kg/m3
3606.3 kPa	990.7 kg/m3
3634.2 kPa	990.5 kg/m3
3662.6 kPa	990.7 kg/m3
3690.5 kPa	990.7 kg/m3
3724.1 kPa	990.7 kg/m3
3752.7 kPa	990.9 kg/m3
3781.8 kPa	990.7 kg/m3
3810.6 kPa	990.8 kg/m3
3844.5 kPa	990.8 kg/m3
3872.4 kPa	990.8 kg/m3
3901 kPa	990.8 kg/m3
3935 kPa	990.9 kg/m3
3963.4 kPa	990.9 kg/m3
3991.9 kPa	990.9 kg/m3
4026.4 kPa	990.9 kg/m3
4056 kPa	991 kg/m3
4084.6 kPa	991 kg/m3
4113.5 kPa	991 kg/m3
4146.8 kPa	991 kg/m3
4175 kPa	991.1 kg/m3
4876.2 kPa	991.5 kg/m3
4893.7 kPa	991.5 kg/m3
4923.8 kPa	991.5 kg/m3
4939.3 kPa	991.6 kg/m3
4955.2 kPa	991.5 kg/m3
4973.4 kPa	991.6 kg/m3
4988.8 kPa	991.5 kg/m3
5003.5 kPa	991.5 kg/m3
5021.5 kPa	991.7 kg/m3
5037.1 kPa	991.6 kg/m3
5052.1 kPa	991.7 kg/m3
5067.7 kPa	991.7 kg/m3
5086.4 kPa	991.5 kg/m3
5101.8 kPa	991.6 kg/m3
5117.7 kPa	991.7 kg/m3
